Data from patent US8895761B2, “4-phenylpyrane-3,5-diones, 4-phenylthiopyrane-3,5-diones and 2-phenylcyclohexane-1,3,5-triones as herbicides” (Syngenta Limited, priority 2007, dated 2014).

What was measured:
Type in all cases: in vivo
Lolium perenne (LOLPE) [1] = assay: Pre-emergence herbicidal glasshouse test, Lolium perenne; conditions: 312 h, rate 250 g/ha, evaluated after 13 days, scale 100 = total damage to plant, 0 = no damage
How it was run: (§1)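 Visual damage scores (0 = undamaged, top = plant totally killed) were taken 13 days after spraying. Treatment was given one day after sowing or at day 8 of cultivation, under 24/16° C. glasshouse conditions.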

[2] = tested on: Alopecurus myosuroides (ALOMY); assay: Pre-emergence herbicidal glasshouse test, Alopecurus myosuroides; conditions: Alopecurus myosuroides, 312 h, rate 250 g/ha, evaluated after 13 days, scale 100 = total damage to plant, 0 = no damage
How it was run: as §1

[3] = tested on: Echinochloa crus-galli (ECHCG); assay: Pre-emergence herbicidal glasshouse test, Echinochloa crus-galli; conditions: Echinochloa crus-galli, 312 h, rate 250 g/ha, evaluated after 13 days, scale 100 = total damage to plant, 0 = no damage
How it was run: as §1

Avena fatua (AVEFA) [4] = assay: Pre-emergence herbicidal glasshouse test, Avena fatua; conditions: Avena fatua, 312 h, rate 250 g/ha, evaluated after 13 days, scale 100 = total damage to plant, 0 = no damage
How it was run: as §1

Lolium perenne (LOLPE) [5] = assay: Post-emergence herbicidal glasshouse test, Lolium perenne; conditions: 312 h, rate 250 g/ha, evaluated after 13 days, scale 100 = total damage to plant, 0 = no damage
How it was run: as §1

[6] = tested on: Alopecurus myosuroides (ALOMY); assay: Post-emergence herbicidal glasshouse test, Alopecurus myosuroides; conditions: Alopecurus myosuroides, 312 h, rate 250 g/ha, evaluated after 13 days, scale 100 = total damage to plant, 0 = no damage
How it was run: as §1

[7] = tested on: Echinochloa crus-galli (ECHCG); assay: Post-emergence herbicidal glasshouse test, Echinochloa crus-galli; conditions: Echinochloa crus-galli, 312 h, rate 250 g/ha, evaluated after 13 days, scale 100 = total damage to plant, 0 = no damage
How it was run: as §1

Avena fatua (AVEFA) [8] = assay: Post-emergence herbicidal glasshouse test, Avena fatua; conditions: Avena fatua, 312 h, rate 250 g/ha, evaluated after 13 days, scale 100 = total damage to plant, 0 = no damage
How it was run: as §1

Structure (SMILES) | pest or weed control at 250 g/ha (Lolium perenne (LOLPE) [1]) | pest or weed control at 250 g/ha [2] | pest or weed control at 250 g/ha [3] | pest or weed control at 250 g/ha (Avena fatua (AVEFA) [4]) | pest or weed control at 250 g/ha (Lolium perenne (LOLPE) [5]) | pest or weed control at 250 g/ha [6] | pest or weed control at 250 g/ha [7] | pest or weed control at 250 g/ha (Avena fatua (AVEFA) [8])
CCc1cc(-c2cc(F)c(F)c(F)c2)ccc1C1=C(O)C(C)(CC)OC(C)(CC)C1=O (centres unmarked) [Compound A-130] | 60% | 50% | 40% | 10% | 60% | 90% | 90% | 70%
CCc1cc(-c2cc(F)c(F)cc2F)ccc1C1=C(O)C(C)(CC)OC(C)(CC)C1=O (centres unmarked) [Compound A-132] | 20% | 20% | 10% | 0% | 50% | 60% | 80% | 0%
CCc1cc(-c2ccc(F)c(F)c2F)ccc1C1=C(O)C(C)(CC)OC(C)(CC)C1=O (centres unmarked) [Compound A-133] | 30% | 30% | 0% | 0% | 50% | 60% | 60% | 20%
CC1(C)OC(C)(C)C(O)=C(c2ccc(-c3ccc(F)cc3)cc2Cl)C1=O [Compound A-134] | 30% | 40% | 80% | 0% | 50% | 70% | 100% | 20%
CC1(C)OC(C)(C)C(O)=C(c2ccc(-c3ccc(F)cc3)cc2OC(F)(F)F)C1=O [Compound A-135] | 10% | 30% | 30% | 10% | 60% | 60% | 100% | 10%
CCc1cc(-c2ccc(F)c(OC)c2)ccc1C1=C(O)C(C)(C)SC(C)(C)C1=O [Compound B-4] | 0% | 0% | 0% | 0% | 50% | 40% | 60% | 80%
CCc1cc(-c2ccc(F)c(F)c2)ccc1C1=C(O)C(C)(C)SC(C)(C)C1=O [Compound B-5] | 30% | 50% | 0% | 20% | 60% | 70% | 60% | 70%
CCc1cc(-c2cc(F)c(F)c(F)c2)ccc1C1=C(O)C(C)(C)SC(C)(C)C1=O [Compound B-6] | 50% | 50% | 0% | 0% | 80% | 90% | 80% | 90%
CCc1cc(-c2ccc(F)c(F)c2F)ccc1C1=C(O)C(C)(C)SC(C)(C)C1=O [Compound B-9] | 10% | 10% | 0% | 0% | 60% | 60% | 40% | 80%
CCc1cc(-c2ccc(F)c(F)c2)ccc1C1=C(O)C(C)(C)[S+]([O-])C(C)(C)C1=O (centres unmarked) [Compound B-11] | 40% | 50% | 0% | 20% | 60% | 60% | 40% | 70%
CCc1cc(-c2ccc(F)c(OC)c2)ccc1C1=C(O)C(C)(C)S(=O)(=O)C(C)(C)C1=O [Compound B-16] | 40% | 20% | 40% | 30% | 60% | 50% | 80% | 80%
CCc1cc(-c2ccc(F)c(F)c2)ccc1C1=C(O)C(C)(C)S(=O)(=O)C(C)(C)C1=O [Compound B-17] | 50% | 50% | 10% | 10% | 70% | 80% | 50% | 70%
CCc1cc(-c2cc(F)c(F)c(F)c2)ccc1C1=C(O)C(C)(C)S(=O)(=O)C(C)(C)C1=O [Compound B-18] | 50% | 30% | 30% | 30% | 80% | 70% | 80% | 90%
CCc1cc(-c2ccc(F)c(OC)c2)ccc1C1=C(O)C(C)(C)C(=O)C(C)(C)C1=O [Compound C-3] | 10% | 10% | 10% | 0% | 60% | 30% | 70% | 50%
CCc1cc(-c2ccc(F)c(F)c2)ccc1C1=C(O)C(C)(C)C(=O)C(C)(C)C1=O [Compound C-4] | 20% | 20% | 0% | 0% | 80% | 80% | 70% | 30%
CCc1cc(-c2cc(F)c(F)c(F)c2)ccc1C1=C(O)C(C)(C)C(=O)C(C)(C)C1=O [Compound C-5] | 40% | 30% | 0% | 20% | 70% | 100% | 100% | 90%
CCc1cc(-c2cc(Cl)ccc2OC)ccc1C1=C(O)C(C)(C)C(=O)C(C)(C)C1=O [Compound C-6] | 70% | 40% | 0% | 10% | 20% | 20% | 50% | 10%
CCc1cc(-c2cc(F)c(F)cc2F)ccc1C1=C(O)C(C)(C)C(=O)C(C)(C)C1=O [Compound C-7] | 20% | 30% | 0% | 0% | 60% | 40% | 40% | 10%
CCc1cc(-c2ccc(F)c(F)c2F)ccc1C1=C(O)C(C)(C)C(=O)C(C)(C)C1=O [Compound C-8] | 30% | 10% | 30% | 0% | 60% | 60% | 60% | 10%
CCc1cc(-c2ccc(Cl)c(Cl)c2)ccc1C1=C(OC(C)=O)C(C)(C)OC(C)(C)C1=O [Compound D-2] | 100% | 30% | 90% | 20% | 80% | 70% | 90% | 40%
CCc1cc(-c2ccc(F)cc2)ccc1C1=C(OC(C)=O)C(C)(C)OC(C)(C)C1=O [Compound D-3] | 100% | 90% | 100% | 70% | 100% | 100% | 100% | 80%
CCc1cc(-c2ccc(F)cc2)ccc1C1=C(OC(=O)C(C)(C)C)C(C)OC(C)(C)C1=O [Compound D-9] | 90% | 60% | 50% | 0% | 80% | 70% | 80% | 10%
